In patent US20200237909A1, “METHODS OF TREATING OR PREVENTING BREAST CANCER METASTASES USING ANTIBODIES TO JAGGED1 AND CHEMOTHERAPEUTIC AGENTS” (The Trustees of Princeton University, priority 2017, published 2020):

Columns and labels:
[1] = tested on: Jagged1 expression in osteoblast cells; assay: Jagged1/Alp immunostaining of hind limb bones after cisplatin; assay type: in vivo, nude mice; details: 48 hours after treatment
Method: FIG. 5. Chemotherapy induces Jagged1 expression in osteoblast lineage cells. (A) Jagged1 mRNA expression in osteoblast MC3T3-E1-Clone #4 osteoblast cells and mesenchymal stem cells (MSC), HPMECL endothelial cells (endo), RAW264.7 pre-osteoclast cells, and SCP28 and SUM1315-M1B1 breast tumor cells 48 hr post-treatment with 25 nM paclitaxel or 10 μM cisplatin. (B) Athymic nude mice were i.v. injected with PBS or cisplatin and euthanized 48 hr later. Hind limb bones were collected for IF staining against Alp (green) and Jagged1 (red). Nuclei were counter-stained with DAPI (blue). (C-E) Athymic nude mice were treated with either PBS or cisplatin on Day 0. […] BLI imaging and quantification of BLI signal at Day 4. […]
To confirm this finding in vivo, female nude mice were treated with either PBS or cisplatin. […] In the PBS control group, Jagged1-positive cells were rarely detected, and mostly co-localizing with ALP-positive osteoblasts.
Hindlimb bones were excised from mice at the end point of each experiment, immediately after the last BLI time point. […] For quantitative analysis of lesion area, a 10× objective was used to focus on the tumor region of interest and images were acquired using the AxioCamICc3 camera set to an exposure of around 100 ms. Osteoclast number was assessed as multinucleated TRAP+ cells and reported as number/field. […]

[2] = tested on: MCF7, SCP28 and SUM1315-M1B1; assay: Bone metastatic seeding after cisplatin pre-treatment (IIA injection, BLI); assay type: in vivo, athymic nude mice; details: cisplatin one day before tumor cell injection, 4 days after injection
Method: (§1) FIG. 5. Chemotherapy induces Jagged1 expression in osteoblast lineage cells. (A) Jagged1 mRNA expression in osteoblast MC3T3-E1-Clone #4 osteoblast cells and mesenchymal stem cells (MSC), HPMECL endothelial cells (endo), RAW264.7 pre-osteoclast cells, and SCP28 and SUM1315-M1B1 breast tumor cells 48 hr post-treatment with 25 nM paclitaxel or 10 μM cisplatin. (B) Athymic nude mice were i.v. injected with PBS or cisplatin and euthanized 48 hr later. Hind limb bones were collected for IF staining against Alp (green) and Jagged1 (red). Nuclei were counter-stained with DAPI (blue). (C-E) Athymic nude mice were treated with either PBS or cisplatin on Day 0. One day after the pre-treatment, MCF7 (C), SUM1315-M1B1 (D) or SCP28 (E) cells were delivered locally to the hind limbs of these mice by IIA injection. BLI imaging and quantification of BLI signal at Day 4. (F) Mice from experiment in E were euthanized after BLI imaging at Day 4. Hind limbs were fixed and processed for IF imaging of GFP-expressing tumor cells (green) and ALP positive osteoblasts (red). Size bar: 80 μm. In A: n=3. *p<0.05 by Student's t-test. In C-E: n=5. *p<0.05 by Student's t-test. #: statistically insignificant.
To directly test the effect of increased Jagged1 expression in osteoblasts on bone metastasis seeding and progression, two models were utilized. […]

Jagged1 expression = assay: Jagged1 mRNA expression in cell lines after chemotherapy agents; assay type: cell-based; details: 48 hr; for Jagged1 expression: MC3T3-E1 pre-osteoblast cells and MSCs, 25 nM paclitaxel or 10 μM cisplatin; for Jagged1 induction: endothelial cells, RAW 264.7 pre-osteoclasts, SCP28 and SUM1315-M1B1 tumor cells
Method: as §1
The possibility that chemotherapy agents may induce Jagged1 expression in either tumor cells or in the bone stromal cells was considered. […] Key stromal cell types in bone metastasis include osteoclasts, osteoblasts and their progenitors (such as mesenchymal stem cells (MSCs)), and endothelial cells. Whether Jagged1 could be induced in these cells and various breast cancer cell lines upon treatment of two different chemotherapy agents, paclitaxel and cisplatin, which are commonly used in the treatment of breast cancer, was tested.
Total RNAs were isolated from cells using RNeasy kit (Qiagen) following manufacturer's instructions. RNAs were reverse transcribed into cDNAs by using Superscript III reverse transcription kit (Invitrogen). Real-time RT-PCR was performed on ABI 7900 96 HT series PCR machine (Applied Biosystem) using SYBR Green Supermix (Bio-Rad Laboratories). The gene-specific primer sets were used at a final concentration of 0.5 μM. All real-time RT-PCR assays were performed in duplicate in at least two independent experiments. Relative expression values of each target gene were normalized to GAPDH mRNA level.

SCP28-Jagged1 cells = assay: SCP28-Jagged1 bone metastasis, late treatment with 15D11 and paclitaxel; assay type: in vivo, mice; details: in words
Method: To evaluate the combinatorial effect of 15D11 with conventional chemotherapy, we treated bone metastasis generated by SCP28-Jagged1 cells with 15D11 and paclitaxel, using the late treatment protocol (treatment initiated 1 week after IC injection) (FIG. 3A). […] Mice were treated with IgG (as negative control), 15D11, paclitaxel, or both, one week after IC injection of SCP28-Jagged1 to establish bone metastases.
For experimental bone metastasis, three models were used using intra-cardiac (IC), intra-iliac artery (IIA), and intra-tibia (i.t.) injection methods, as previously described (Andersen et al., 2003; Sethi et al., 2011; Wang et al., 2015). Bone metastasis burden was monitored by weekly BLI and X-ray imaging. At the experimental endpoint, mice were euthanized for bone histology analysis and half of the bone samples were used for μCT imaging and bone density quantification.
The initial treatment is either one day before tumor cell injection or one week after tumor cell injection as described in each experiment. For IgG or 15D11 antibody treatment, mice were i.p. injected at the dosing of 10 mg/kg, twice a week. […] For paclitaxel treatment, paclitaxol powder was first dissolved in 95% ethanol, sonicated and shaken overnight, before mixing 1:1 with cremophor (Sigma Catalog#:769193-1KG) to reach the final concentration of 20 mg/ml. […]

In the case of `N.N.[Cl][Pt][Cl]` [cisplatin], the “Jagged1 expression (immunostaining, Alp positive cells)” value [1] is reported as “much stronger Jagged1 expression”, the “bone metastatic seeding (BLI)” value [2] is reported as “significant increase” and the Jagged1 expression (Jagged1 expression) is reported as “significantly increased”. The Jagged1 induction (Jagged1 expression) was “no significant induction”.

`CC(=O)O[C@H]1C(=O)[C@@]2(C)[C@H]([C@H](OC(=O)c3ccccc3)[C@]3(O)C[C@H](OC(=O)[C@H](O)[C@@H](NC(=O)c4ccccc4)c4ccccc4)C(C)=C1C3(C)C)[C@]1(OC(C)=O)CO[C@@H]1C[C@@H]2O` [paclitaxel] was tested, and the “tumor burden at the end point” value (SCP28-Jagged1 cells) was “only a mild reduction of tumor burden”, the Jagged1 expression (Jagged1 expression) was “significantly increased” and the Jagged1 induction (Jagged1 expression) was “no significant induction”.
